Microsomal CLint and Papp data for one compound are collected here from ChEMBL document CHEMBL1914382, “Fragment based discovery of a novel and selective PI3 kinase inhibitor” (Bioorg Med Chem Lett, 2011).

Data set [1] can be described thus: Metabolic stability in rat liver microsomes. The data set is classed as ADME, Microsome. The note with it: read-out: Stability. Background: Microsomes from liver hold many membrane-bound enzymes, among them those of drug oxidation.
Data set [2] in a line: Metabolic stability in human liver microsomes. In kind it is ADME, Microsome. The note with it: read-out: Stability.
Data set [3] in a line: Permeability of the compound by PAMPA. In kind it is ADME. The note with it: read-out: permeability. Background: In PAMPA a lipid-coated filter parts donor from acceptor wells.

In the case of `CC(=O)Nc1cn2cc(/C=C3\SC(=O)NC3=O)ccc2n1`, the microsomal CLint in data set [1] is 15 µL/min/mg; in data set [2] it was 10 µL/min/mg. In data set [3], the Papp was 13.6 ×10⁻⁶ cm/s.
